In the oligonucleotide strings, read from the 5' end, every base follows the letter of its sugar. An asterisk marks phosphorothioate; unmarked linkages are phosphodiester. Other units and linkages are bracketed, terminal groups are in braces. A string of capitals states the bases alone. {NAG37} = tridentate N-acetyl-galactosamine targeting ligand, structure (NAG37)s; [invAb] = inverted abasic unit; m = 2'-O-methyl; f = 2'-fluoro
Experiments:
ANGPTL3 gene [1] = experiment: Example 4: serum LDL in mice; format: in vivo, C57bl/6 mice; settings: for Avg LDL, normalized to pre-treatment and control: 1.0 mg/kg single SC injection on day 1, serum, n=3
Protocol: (§1) To assess the in vivo activity of ANGPTL3 RNAi agents that are designed to target additional positions on the ANGPTL3 gene, six- to eight-week-old female C57bl/6 mice were used. Pre-dose serum samples were taken at day −1 after a four hour fast. At day 1, each mouse was given a single subcutaneous administration of 200 μl containing either 1 mg/kg (mpk) or 0.5 mg/kg (mpk) of an ANGPTL3 RNAi agent in D5W (dextrose in 5% water), or control (D5W) with no RNAi agent, according to the dosing groups recited in Table 17.
(§2) Each of the RNAi agents included a modified sequence and an N-acetyl-galactosamine-containing targeting ligand conjugated to the 5′ terminal end of the sense strand. (See Tables 3, 4, and 5 for modified sequences and targeting ligand structures). The injections were performed between the skin and muscle (i.e. subcutaneous injections) into the loose skin over the neck and shoulder area. Three (3) mice in each group were tested (n=3). Serum was collected on days 8, 15, 22, 29, and day 43 (Groups 1-3, 9, and 11-13 only). Mice were fasted for four hours prior to each collection. ANGPTL3 protein levels in serum were measured by ELISA assay (R&D Systems), according to the manufacturer's recommendations. Triglycerides, high-density lipoprotein (HDL), and total cholesterol in serum were measured on a Cobas® Integra 400 (Roche Diagnostics), according to the manufacturer's recommendations.
(§3) The ANGPTL3 protein levels, triglyceride levels, HDL levels, and total cholesterol levels for each animal were normalized. For normalization, the level of ANGPTL3 protein, triglyceride, HDL, and total cholesterol, respectively, for each animal at a time point, was divided by the pre-treatment level of expression in that animal (in this case at day −1) to determine the ratio of expression “normalized to pre-treatment.” Expression at a specific time point was then normalized to the D5W control group by dividing the “normalized to pre-treatment” ratio for an individual animal by the mean “normalized to pretreatment” ratio of all mice in the D5W control group.

ANGPTL3 gene [2] = experiment: Example 4: serum total cholesterol in mice; format: in vivo, C57bl/6 mice
Protocol: as §1, §2, §3

AD05488: RNAi agent duplex: antisense AM07235-AS, sense AM07234-SS (antisense mU*fA*mC*fUmGfAmUfCmAfAmAfUmAfUmGfUmUfGmAfG*mC; sense {NAG37}*[invAb]*mGmCmUmCmAmAmCmAfUfAfUmUmUmGmAmUmCmAmGmUmA*[invAb])
Avg LDL, normalized to pre-treatment and control (ANGPTL3 gene [1]; Day 8): 0.936
Avg LDL, normalized to pre-treatment and control (ANGPTL3 gene [1]; Day 15): 0.714
Avg LDL, normalized to pre-treatment and control (ANGPTL3 gene [1]; Day 22): 0.811
Avg LDL, normalized to pre-treatment and control (ANGPTL3 gene [1]; Day 29): 0.801
Avg LDL, normalized to pre-treatment and control (ANGPTL3 gene [1]; Day 43): 0.902
LDL levels reduced (ANGPTL3 gene [1]; day 29, single 1 mg/kg subcutaneous, C57bl/6 mice): ~20%
Avg Total Chol, normalized to pre-treatment and control (ANGPTL3 gene [2]; Day 8, 1.0 mg/kg single SC injection on day 1, n=3): 0.827
Avg Total Chol, normalized to pre-treatment and control (ANGPTL3 gene [2]; Day 15, 1.0 mg/kg single SC injection on day 1, n=3): 0.667
Avg Total Chol, normalized to pre-treatment and control (ANGPTL3 gene [2]; Day 22, 1.0 mg/kg single SC injection on day 1, n=3): 0.759
Avg Total Chol, normalized to pre-treatment and control (ANGPTL3 gene [2]; Day 29, 1.0 mg/kg single SC injection on day 1, n=3): 0.683
Avg Total Chol, normalized to pre-treatment and control (ANGPTL3 gene [2]; Day 43, 1.0 mg/kg single SC injection on day 1, n=3): 0.837
